Earlier results on one compound are cited in patent US20050095288A1, “Decongestant and expectorant tablets” (Andrx Labs, LLC, priority 2003, published 2005).

The conditions of the series: background statement, no test described.

As for `COc1ccccc1OCC(O)CO` (stereo not shown) [Guaifenesin, 3-(2-methoxyphenoxy)-1,2-propane-diol], the typical plasma half-life entry is listed as “approximately one”.
